Test results published in patent US11434289B2, “Anti-GPR20 antibody and anti-GPR20 antibody-drug conjugate” (DAIICHI SANKYO COMPANY, LIMITED, priority 2017, dated 2022).

Legend:
GIST074 = test: Antitumor effect in subcutaneously GIST074-transplanted nude mouse models (regorafenib-unresponsive patient tumor); assay type: in vivo, BALB/c nude mice; settings: orally once a day; imatinib 90, sunitinib 30, regorafenib 4 mg/kg; FIG. 36
Method: The antitumor effects of the antibody-drug conjugates were evaluated using animal models derived from immunodeficient mice by the transplantation of human gastrointestinal stromal tumor-derived cells. Five- to 6-week-old female BALB/c nude mice (CAnN.Cg-Foxnlnu/CrlCrlj, Charles River Laboratories Japan Inc.) were acclimatized for 4 to 7 days under SPF conditions before use in the experiment. The mice were fed with a sterilized solid diet (FR-2, Funabashi Farms Co., Ltd) and given sterilized tap water (which had been prepared by adding a 5 to 15 ppm sodium hypochlorite solution to tap water). The longest diameter and the shortest diameter of the transplanted tumor were measured once or twice a week using electronic digital calipers (CD-15CX, Mitutoyo Corp.), and the volume of the tumor was then calculated according to the following equation. Tumor volume (mm^3)=½×Longest diameter (mm)×[Shortest diameter (mm)]^2
[…] ABS buffer was administered in the same manner as above to a control group (vehicle group). Five or six mice per group were used in the experiment. […]

[1] = tested on: human gastrointestinal stromal tumor cell line GIST430/654; test: Antitumor effect and combined use with sunitinib in GIST430/654-transplanted nude mouse models (imatinib resistance mutation V654A in KIT); assay type: in vivo, BALB/c nude mice; settings: orally once a day; imatinib 150, sunitinib 40 mg/kg; FIG. 37
Method: The effect of combined use with sunitinib was evaluated in models with human gastrointestinal stromal tumor cell line GIST430/654 (obtained from Brigham Women's Hospital) having imatinib resistance mutation V654A in the KIT gene. […]

Row | SMILES | tumor growth (GIST074) | tumor growth [1]
1 | Cc1ccc(NC(=O)c2ccc(CN3CCN(C)CC3)cc2)cc1Nc1nccc(-c2cccnc2)n1 [imatinib] | tumor growth was not completely suppressed | did not suppress tumor growth
2 | CNC(=O)c1cc(Oc2ccc(NC(=O)Nc3ccc(Cl)c(C(F)(F)F)c3)c(F)c2)ccn1 [regorafenib] | tumor growth was not completely suppressed | 
